From US8084457B2, “Pharmaceutically active 4,6-disubstituted aminopyrimidine derivatives as modulators of protein kinases” (Lead Discovery Center GmbH, priority 2003, dated 2011)
pIC50: −log10 of the molar value.

Tests used:
CDK2/CyclinA = molecular target: T1, CDK2/CyclinA (Homo sapiens, UniProt P24941); assay: Kinase assay determining CDK2/CyclinA activity; format: biochemical; details: read-out: CDK2 (activity range)
T1 construct: purchased Proqinase
Method: Kinase Assays Determining CDK2/CyclinA and CDK5/p35 Activity:
Kinase assays were performed as described by the manufacturers recommendations (Proqinase for CDK2/CyclinA and Upsate for CDK5/p35).

CDK9/Cyclin T1 = molecular target: T2, CDK9/Cyclin T1 (Homo sapiens, UniProt P50750); assay: Kinase assay using CDK9/Cyclin T1; format: biochemical; details: read-out: CDK9 (activity range)
T2 construct: made in house; host or cells: HEK293 cells, recombinant adenovirus
Source text: Cloning of CDK9 and Cyclin T1:
Both cDNA fragments were cloned by PCR into pDONR201 vectors using the gateway recombination system (Invitrogen) according to the manufacturer's recommendations. The fragments were subcloned into a gateway-adapted shuttle vector (pPM7) for production of recombinant adenovirus. All plasmids were verified by restriction digests and sequencing analysis.
Expression and Purification of CDK9/Cyclin T1 Proteins:
Expression and purification was in principle performed as described by Cotten et al. (M. Cotten et al., Nucleic acids research, 2003, 31(28), 128).
Kinase Assay Using CDK9/Cyclin T1:
Kinase assays were performed in principle as described by Cotten et al. (M. Cotten et al., Nucleic acids research, 2003, 31(28), 128).

T2 sequence (P50750 whole entry): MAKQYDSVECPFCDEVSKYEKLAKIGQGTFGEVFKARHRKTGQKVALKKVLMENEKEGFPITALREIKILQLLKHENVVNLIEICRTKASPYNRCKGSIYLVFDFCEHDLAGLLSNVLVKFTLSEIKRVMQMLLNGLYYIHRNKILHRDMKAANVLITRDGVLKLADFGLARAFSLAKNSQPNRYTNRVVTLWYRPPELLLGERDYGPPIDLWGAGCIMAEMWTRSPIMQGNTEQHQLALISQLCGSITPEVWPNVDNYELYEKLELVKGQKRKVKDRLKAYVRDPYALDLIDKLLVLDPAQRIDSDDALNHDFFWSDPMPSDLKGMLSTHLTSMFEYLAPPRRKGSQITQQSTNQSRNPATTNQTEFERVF
T2 sequence (O60563 whole entry partner): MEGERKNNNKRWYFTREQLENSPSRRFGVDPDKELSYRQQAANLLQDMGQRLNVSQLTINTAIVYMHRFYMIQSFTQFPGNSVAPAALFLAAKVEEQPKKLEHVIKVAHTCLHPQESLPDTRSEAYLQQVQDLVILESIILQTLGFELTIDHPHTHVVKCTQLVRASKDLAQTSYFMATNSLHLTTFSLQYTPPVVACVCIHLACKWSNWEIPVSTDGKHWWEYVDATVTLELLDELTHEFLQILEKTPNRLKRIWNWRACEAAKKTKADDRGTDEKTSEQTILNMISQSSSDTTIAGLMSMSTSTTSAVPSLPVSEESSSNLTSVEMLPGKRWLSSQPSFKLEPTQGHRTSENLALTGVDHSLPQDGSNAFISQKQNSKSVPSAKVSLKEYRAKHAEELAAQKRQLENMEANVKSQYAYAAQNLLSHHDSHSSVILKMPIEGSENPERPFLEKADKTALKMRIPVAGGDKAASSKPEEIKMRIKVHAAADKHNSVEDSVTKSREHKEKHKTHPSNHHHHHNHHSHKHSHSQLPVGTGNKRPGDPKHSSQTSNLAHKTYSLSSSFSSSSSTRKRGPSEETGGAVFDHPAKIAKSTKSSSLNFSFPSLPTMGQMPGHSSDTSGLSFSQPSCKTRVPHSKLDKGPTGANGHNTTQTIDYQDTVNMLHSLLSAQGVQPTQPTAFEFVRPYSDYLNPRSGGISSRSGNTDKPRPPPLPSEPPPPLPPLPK

Compound	pIC50 (CDK2/CyclinA)	pIC50 (CDK9/Cyclin T1)
Nc1ccc(C(=O)Nc2ccc(Nc3cc(-c4cccs4)ncn3)cc2)cc1 [(77)]	3.60 to 5.00	5.00 to 6.00
CC(C)(C)C(=O)Nc1ccc(Nc2cc(-c3cccnc3)ncn2)cc1 [(73)]	3.60 to 5.00	
COC(=O)/C=C/c1cccc(-c2cc(Nc3ccc(C)c(NS(C)(=O)=O)c3)ncn2)c1 [(182)]	5.00 to 6.00	5.00 to 6.00
Nc1cccc(-c2cc(Nc3cccc(S(N)(=O)=O)c3)ncn2)c1 [(214)]	5.00 to 6.00	6.00 to 9.00
COc1ccccc1-c1cc(Nc2ccc(NC(=O)c3ccc4ccccc4n3)cc2)ncn1 [(98)]	3.60 to 5.00	6.00 to 9.00
Cc1ccc(Nc2cc(-c3ccccc3OCc3ccccc3)ncn2)cc1NS(C)(=O)=O [(156)]	6.00 to 9.00	6.00 to 9.00
COc1ccccc1-c1cc(Nc2ccc(NC(=O)[C@@H]3CCN3)cc2)ncn1 [(90)]	5.00 to 6.00	6.00 to 9.00
Cc1ccc(Nc2cc(-c3cccc(NS(C)(=O)=O)c3)ncn2)cc1NS(C)(=O)=O [(108)]	6.00 to 9.00	5.00 to 6.00
COc1ccc(-c2cc(NCCc3ccncc3)ncn2)cc1 [(92)]	3.60 to 5.00	3.60 to 5.00
COc1ccccc1-c1cc(Nc2ccc(C)c(NS(C)(=O)=O)c2)ncn1 [(162)]	6.00 to 9.00	6.00 to 9.00
COc1ccccc1-c1cc(Nc2ccc(C(=O)NC(C)(C)C)cc2)ncn1 [(54)]	5.00 to 6.00	5.00 to 6.00
Nc1ccc(C(=O)Nc2ccc(Nc3cc(-c4ccccc4)ncn3)cc2)cc1 [(76)]	3.60 to 5.00	5.00 to 6.00
O=C(Nc1ccc(Nc2cc(-c3ccccc3Cl)ncn2)cc1)[C@@H]1CCCCN1 [(192)]	3.60 to 5.00	6.00 to 9.00
Cc1ccc(S(=O)(=O)Nc2ccc(Nc3cc(Cl)ncn3)cc2)cc1 [(24)]	5.00 to 6.00	3.60 to 5.00
CC(C)(C)C(=O)Nc1ccc(Nc2cc(NCCN)ncn2)cc1 [(79)]	3.60 to 5.00	3.60 to 5.00
COc1ccccc1-c1cc(Nc2ccc(NC(=O)c3c[nH]c4ccccc34)cc2)ncn1 [(133)]	5.00 to 6.00	6.00 to 9.00
COc1ccccc1-c1cc(Nc2ccc(C(=O)N[C@@H]3CCCC[C@H]3O)cc2)ncn1 (racemic) [(135)]	5.00 to 6.00	6.00 to 9.00
COc1ccccc1-c1cc(NCCc2ccncc2)ncn1 [(93)]	3.60 to 5.00	5.00 to 6.00

Compound	pIC50 (CDK2/CyclinA)	pIC50 (CDK9/Cyclin T1)
Cc1ccc(S(=O)(=O)Nc2ccc(Nc3cc(-c4ccc(O)cc4)ncn3)cc2)cc1 [(11)]	6.00 to 9.00	6.00 to 9.00
Cc1ccc(Nc2cc(-c3cccc(N)c3)ncn2)cc1NS(=O)(=O)c1ccccc1 [(109)]	5.00 to 6.00	6.00 to 9.00
COc1cccc(-c2cc(Nc3ccc(NS(=O)(=O)c4ccc(C)cc4)cc3)ncn2)c1 [(2)]	3.60 to 5.00	3.60 to 5.00
COc1ccccc1-c1cc(Nc2ccc(NC(=O)c3nc4ccccc4s3)cc2)ncn1 [(84)]	3.60 to 5.00	5.00 to 6.00
COc1ccccc1-c1cc(Nc2ccc(NC(=O)c3ccncc3)cc2)ncn1 [(50)]	3.60 to 5.00	5.00 to 6.00
Cc1ccc(Nc2cc(-c3cccc(N(C)C)c3)ncn2)cc1NS(C)(=O)=O [(157)]	5.00 to 6.00	6.00 to 9.00
Nc1ccc(C(=O)Nc2ccc(Nc3cc(NCC4CCCCC4)ncn3)cc2)cc1 [(43)]	3.60 to 5.00	5.00 to 6.00
COc1ccccc1-c1cc(Nc2ccc(C(=O)Nc3ccc(N4CCOCC4)cc3)cc2)ncn1 [(125)]	5.00 to 6.00	6.00 to 9.00
CS(=O)(=O)Nc1cc(Nc2cc(-c3cccc(N)c3)ncn2)ccc1OCc1ccccc1 [(120)]	5.00 to 6.00	5.00 to 6.00
COC(=O)CN(c1ccc(Nc2cc(-c3ccccc3OC)ncn2)cc1)S(=O)(=O)c1ccc(C)cc1 [(28)]	5.00 to 6.00	5.00 to 6.00
COc1ccccc1-c1cc(Nc2ccc(NC(=O)c3ccc4c(c3)OCO4)cc2)ncn1 [(130)]	5.00 to 6.00	6.00 to 9.00
COc1ccccc1-c1cc(Nc2ccc(N)cc2C)ncn1 [(123)]	5.00 to 6.00	5.00 to 6.00
COc1ccccc1-c1cc(Nc2ccc(NC(=O)NC(C)(C)C)cc2)ncn1 [(113)]	5.00 to 6.00	6.00 to 9.00
COc1ccccc1-c1cc(Nc2ccc(NS(=O)(=O)c3ccc(C)cc3)cc2)ncn1 [(5)]	6.00 to 9.00	6.00 to 9.00
COc1ccccc1-c1cc(Nc2ccc(NC(=O)c3ccc4[nH]cnc4c3)cc2)ncn1 [(138)]	3.60 to 5.00	5.00 to 6.00
CC(C)(C)C(=O)Nc1ccc(Nc2cc(Cl)ncn2)cc1 [(72)]	3.60 to 5.00	
CN1CCN(c2cc(Nc3ccc(NC(=O)C(C)(C)C)cc3)ncn2)CC1 [(78)]	3.60 to 5.00	
COc1ccccc1-c1cc(Nc2ccc(NC(=O)Nc3ccc4c(c3)OCO4)cc2)ncn1 [(111)]	3.60 to 5.00	
